Assay results as given in patent US20040248913A1, “(Pyridinyl and pyrimidyl) trienoic acid derivatives as retinoid x receptor modulators” (priority 2001, published 2004).

Tests used:
[1] = test system: RXRα:RAR heterodimer; assay: RXR:RAR heterodimer cotransfection assay in CV-1 cells; format: cell-based, human; settings: for Synergy Efficacy (%): maximal response in presence of 3 nM TTNPB relative to response to TTNPB alone; for Agonist Efficacy (%): maximal response relative to response of ATRA
From the text: (§1) In the co-transfection assay, cloned cDNA for one or more IRs (e.g., human RARα, RXRα, or PPARγ), alone or in combination (i.e. for heterodimer assays) under the control of a constitutive promoter (e.g., the SV 40, RSV or CMV promoter) is introduced by transfection (a procedure to introduce exogenous genes into cells) into a background cell substantially devoid of endogenous IRs. These introduced gene(s) direct the recipient cells to make the IR protein(s) of interest. A further gene is also introduced (co-transfected) into the same cells in conjunction with the IR gene(s). This further gene, comprising the cDNA for a reporter protein, such as firefly luciferase (LUC), controlled by an appropriate hormone responsive promoter containing a hormone response element (HRE). This reporter plasmid functions as a reporter for the transcriptional-modulating activity of the target IR(s). Thus, the reporter acts as a surrogate for the products (mRNA then protein) normally expressed by a gene under control of the target receptor(s) and their native hormone(s).
(§2) Compounds of the present invention were also tested for the ability to synergize with an RAR or PPARγ agonist in the context of an RXR heterodimer. […] Efficacy of the compounds of the present invention in the agonist and synergy assays was calculated as the maximum response obtained over the range of the dose response curve relative to the maximum response obtained by the reference agonist. Antagonist efficacy was determined as a function (%) of maximal inhibition.
(§3) RAR suppresses RXR ligand binding and transactivation of typical RXR agonists via allosteric interactions. […] However, when RAR is occupied, typical RXR agonists activate the heterodimer. […] To examine the effects of the compounds of the present invention on the transcriptional properties of the RXR:RAR heterodimer, a heterodimer cotransfection assay as described above was employed.

[2] = target: T1, RXRα:RAR heterodimer (Homo sapiens, UniProt P19793); assay: as above; format: cell-based; settings: for Antagonist Efficacy (%): relative to maximal repression (100%) in presence of 10 nM TTNPB; for RXR:RAR antagonist activity (in words): antagonist assay
T1 construct: expressed in transfected cells; host or cells: CV-1 cells
T1 sequence (P19793 1-462): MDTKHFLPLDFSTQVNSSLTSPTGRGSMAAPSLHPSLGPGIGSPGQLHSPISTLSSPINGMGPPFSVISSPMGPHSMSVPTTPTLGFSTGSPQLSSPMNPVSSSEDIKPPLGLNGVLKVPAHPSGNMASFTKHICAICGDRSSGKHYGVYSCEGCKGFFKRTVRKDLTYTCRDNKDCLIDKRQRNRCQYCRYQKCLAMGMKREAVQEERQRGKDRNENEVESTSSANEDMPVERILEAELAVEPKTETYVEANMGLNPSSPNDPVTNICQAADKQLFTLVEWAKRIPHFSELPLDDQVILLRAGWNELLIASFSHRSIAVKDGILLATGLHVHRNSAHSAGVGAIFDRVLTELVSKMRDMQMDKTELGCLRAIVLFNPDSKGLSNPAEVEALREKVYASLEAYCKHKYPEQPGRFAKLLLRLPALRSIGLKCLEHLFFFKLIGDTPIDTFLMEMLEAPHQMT
From the text: as §1, §2, §3

[3] = target: T2, RXRα homodimer (Homo sapiens, UniProt P19793); assay: RXR homodimer co-transfection assay in CV-1 cells (CRBPIITKLUC reporter); format: cell-based; settings: for Agonist Efficacy (%): mean of n > 2; for Antagonist Efficacy (%) / IC50: RXRα homodimer; for Antagonist Efficacy (%): % of maximal inhibition in presence of fixed concentration (3.2×10^−8 M) of known RXR agonist; for IC50: in presence of known RXR agonist, read-out: Antagonist IC50; for Activity in the context of RXR homodimers (in words): summary of Table 1
T2 sequence (P19793 1-462): T1 sequence (P19793 1-462)
From the text: This assay is described in further detail in U.S. Pat. Nos. 4,981,784 and 5,071,773, the disclosures of which are incorporated herein by reference.
The co-transfection assay provides a method for identifying functional agonists which mimic, or antagonists which inhibit, the effect of native hormones, and quantifying their activity for responsive IR proteins. In this regard, the co-transfection assay mimics an in vivo system in the laboratory. Importantly, activity in the co-transfection assay correlates very well with known in vivo activity, such that the co-transfection assay functions as a qualitative and quantitative predictor of a tested compounds in vivo pharmacology. See, e.g., T. Berger et al. 41 J. Steroid Biochem. Molec. Biol. 773 (1992), the disclosure of which is herein incorporated by reference.
as §1
Exposing the transfected cells to an agonist ligand compound increases reporter activity in the transfected cells. This activity can be conveniently measured, e.g., by increasing luciferase production and enzymatic activity, which reflects compound-dependent, IR-mediated increases in reporter transcription. To detect antagonists, the co-transfection assay is carried out in the presence of a constant concentration of an known agonist to the target IR (e.g., 4-[(3,5,5,8,8-Pentamethyl-5,6,7,8-tetrahydro-2-naphthyl)ethenyl]benzoic acid (Ligand Pharmaceuticals, Inc.) for RXRα) known to induce a defined reporter signal. Increasing concentrations of an antagonist will decrease the reporter signal (e.g., luciferase production). The co-transfection assay is therefore useful to detect both agonists and antagonists of specific IRs. Furthermore, it determines not only whether a compound interacts with a particular IR, but whether this interaction mimics (agonizes) or blocks (antagonizes) the effects of native or synthetic regulatory molecules on target gene expression, as well as the specificity and strength of this interaction.
The receptor expression plsmid was cotransfected along with a reporter plasmid at 50 ng/well, the internal control plasmid pRS-β-Gal at 50 ng/well and filler DNA, pGEM, at 90 ng/well.

[4] = RXRα homodimer cotransfection, CV-1 cells
[5] = not calculated if efficacy <10%

| Antagonist Efficacy (%) [2] | Agonist Efficacy (%) [3, 4] | Antagonist Efficacy (%) [3] | IC50 [3, 5] | EC50 ([3]; RXRα homodimer cotransfection, CV-1 cells, not calculated if efficacy <10%, read-out: Agonist EC50) | Structure (SMILES) | RXR:RAR agonist activity in combination with TTNPB (in words) [1] | Synergy Efficacy (%) [1] | Agonist Efficacy (%) [1] | Activity in the context of RXR homodimers (in words) [3] | RXR:RAR agonist activity / transactivation alone (in words) [1] | RXR:RAR antagonist activity (in words) [2] |
| --- | --- | --- | --- | --- | --- | --- | --- | --- | --- | --- | --- |
| 76% | 9% | 76% | 8.7 nM | – | C/C(=C/C=C/C(C)=C/C(=O)O)c1cc(C(C)C)nc(C(C)C)c1OCC(F)F [Example 4, 7-[3-(2,2-Difluoro-ethoxy)-2,6-diisopropyl-pyridin-4-yl]-3-methyl-octa-2(E),4(E),6(Z)-trienoic acid] | weak to moderate agonist activity | 37% | 9% | highly efficacious and potent antagonist activity with little or no agonists activity | – | – |
| 88% | 4% | 88% | 4.1 nM | – | CCCOc1c(\C(C)=C/C=C/C(C)=C/C(=O)O)cc(C(C)C)nc1C(C)C [Example 2, 7-(2,6-Diisopropyl-3-propoxy-pyridin-4-yl)-3-methyl-octa-2(E),4(E),6(Z)-trienoic Acid] | not active | 6% | 2% | highly efficacious and potent antagonist activity with little or no agonists activity | not active | significant RXR:RAR antagonist activity |
| – | 51% | 3% | – | 2 nM | CCOc1c(\C(C)=C/C=C/C(C)=C/C(=O)O)cc(C(C)C)nc1C(C)C [Example 3, 7-(2,6-Diisopropyl-3-ethoxy-pyridin-4-yl)-3-methyl-octa-2(E),4(E),6(Z)-trienoic acid] | strong agonist activity | 73% | 6% | agonist activity | – | – |
| 85% | 3% | 85% | 8 nM | – | C/C(=C/C=C/C(C)=C/C(=O)O)c1cc(C(C)C)nc(C(C)C)c1OCC(F)(F)F [Example 5, 7-[2,6-Diisopropyl-3-(2,2,2-trifluoro-ethoxy)-pyridin-4-yl]-3-methyl-octa-2(E),4(E),6(Z)-trienoic acid] | weak to moderate agonist activity | 18% | 3% | highly efficacious and potent antagonist activity with little or no agonists activity | – | – |

| Structure (SMILES) | Antagonist Efficacy (%) [2] | Agonist Efficacy (%) [3, 4] | Antagonist Efficacy (%) [3] | IC50 [3, 5] | EC50 ([3]; RXRα homodimer cotransfection, CV-1 cells, not calculated if efficacy <10%, read-out: Agonist EC50) | RXR:RAR agonist activity in combination with TTNPB (in words) [1] | Synergy Efficacy (%) [1] | Agonist Efficacy (%) [1] | Activity in the context of RXR homodimers (in words) [3] | RXR:RAR agonist activity / transactivation alone (in words) [1] | RXR:RAR antagonist activity (in words) [2] |
| --- | --- | --- | --- | --- | --- | --- | --- | --- | --- | --- | --- |
| CCCCOc1c(\C(C)=C/C=C/C(C)=C/C(=O)O)cc(C(C)C)nc1C(C)C [Example 1, 7-(3-Butoxy-2,6-diisopropyl-pyridin-4-yl)-3-methyl-octa-2(E),4(E),6(Z)-trienoic Acid] | 93% | 1% | 93% | 3.5 nM | – | not active | 7% | 1% | highly efficacious and potent antagonist activity with little or no agonists activity | not active | significant RXR:RAR antagonist activity |
